Laboratory results published in ChEMBL document CHEMBL1155382, “Bisleuconothine A, an eburnane-aspidosperma bisindole alkaloid from Leuconotis griffithii” (Bioorg Med Chem Lett, 2010).

Key:
HL-60 = assay: Inhibition of cell growth in human HL60 cells; format: functional, cell-based
HCT-116 [1] = assay: Inhibition of cell growth in human HCT116 cells; format: functional, cell-based
MCF7 = assay: Inhibition of cell growth in human MCF7 cells; format: functional, cell-based
A549 = assay: Inhibition of cell growth in human A549 cells; format: functional, cell-based
HCT-116 [2] = assay: Cell cycle arrest in human HCT116 cells assessed as accumulation at G1 phase at 5 uM after 24 hrs; format: functional
HCT-116 [3] = assay: Cell cycle arrest in human HCT116 cells assessed as accumulation at G1 phase at 10 uM after 24 hrs; format: functional
HCT-116 [4] = assay: Cell cycle arrest in human HCT116 cells assessed as accumulation at G1 phase at 20 uM after 24 hrs; format: functional

IC50 (HL-60): 11 µM
IC50 (HCT-116 [1]): 5.7 µM
IC50 (MCF7): 9.2 µM
IC50 (A549): 7 µM
Compound: CC[C@@]12CCCN3CCc4c(n(c5ccccc45)[C@H](c4ccc(O)c5c4N[C@@H]4CC[C@@]6(CC)CCCN7CC[C@@]54[C@H]76)C1)[C@H]32 [BISLEUCONOTHINE A]
Activity (HCT-116 [2]): 72%
Activity (HCT-116 [3]): 75.1%
Activity (HCT-116 [4]): 79.5%
